According to patent US12036222B2, “Methods of treating cancers overexpressing CARM1 with EZH2 inhibitors and a PARP inhibitor” (The Wistar Institut of Anatomy and Biology, priority 2018, dated 2024):
Entries after “also recorded” stand apart in the source; their conditions may differ.

System: A1847 parental and CARM1 knockout cells
Assay: Epigenetic targeting small molecule set screen (14-day colony formation)
Type: cell-based, human
Details: 14 days, normalized to vehicle
Procedure: FIG. 26 illustrates that CARM1-expressing cells are selectively sensitized to EZH2 inhibitors. Equal number of parental control or CARM1 knockout […] cells were plated and treated with each of the 23 individual epigenetic inhibitors for 14 days. The media with the inhibitors was refreshed every 3 days. Cell growth was quantified as integrated density using NIH Image J software. Quantification of the average integrated density graphed as a scatter plot. The X-axis indicates the relative growth of treated CARM1 high parental […] cells compared with DMSO vehicle controls. Y-axis indicates the relative growth of treated CARM1 knockout […] cells compared with DMSO vehicle controls. n=4; and error bars represents SEM. FIG. 27 illustrates a table of EZH2 inhibitors that are selective against CARM1 expression. CARM1-high parental controls and CARM1 knockout […] cells were treated with the indicated concentration of the small molecules in a 14-day colony formation assay. Integrated density for each well was calculated using NIH Image J software. The relative growth of the indicated cells was determined by normalizing to the vehicle control treated cells. n=4 and p-value was calculated using a two-tailed t-test. […] parental and CARM1 knockout cells were plated in 24-well plates and treated with 24 epigenetic compounds. Cell medium was changed every three days with appropriate drug doses for 14 days or until control wells became confluent. Colonies were washed twice with PBS and fixed with 10% methanol and 10% acetic acid in distilled water. Fixed colonies were stained with 0.005% crystal violet. Integrated density was measured using NIH ImageJ software as a surrogate for cell growth.

| SMILES | selective growth suppression of CARM1-expressing vs CARM1 KO cells |
| --- | --- |
| CC(=O)Nc1ccc(C(=O)Nc2ccccc2N)cc1 [CI994] | equally effective in suppressing the growth of both CARM-expressing and KO cells; also recorded: showed no difference between parental and CARM1 knockout cells |
| CCCc1cc(C)[nH]c(=O)c1CNC(=O)c1cc(-c2ccc(N3CCN(C(C)C)CC3)nc2)cc2c1cnn2C(C)C [UNC1999, 1-isopropyl-6-(6-(4-isopropylpiperazin-1-yl)pyridin-3-yl)-N-((6-methyl-2-oxo-4-propyl-1,2-dihydropyridin-3-yl)methyl)-1H-indazole-4-carboxamide] | showed selectivity against CARM1-expressing cells; also recorded: selectively sensitive |
